The numbers were not newly measured in paper PMC8815272 (The Journal of Supercritical Fluids, 2022), which cites them from elsewhere.

For this data set the following is noted: cited from earlier work.
[1] abbreviates: SC-CO2, 12–30 MPa, 313.2–343.2 K.
Setting [2] is: SC-CO2, 12–33 MPa, 308.15–338.15 K.
[3] abbreviates: SC-CO2, 12.16–35.46 MPa, 308–348 K.
Where [4] appears, read: SC-CO2, 12.2–35.5 MPa, 308–348 K.
Setting [5] is: SC-CO2, 15.5–30.5 MPa, 315–345 K.
Setting [6] is: SC-CO2, 9–25 MPa, 308.2–328.2 K.
The mark [7] stands for this setting: SC-CO2, 12–27 MPa, 308.2–338.2 K.
The mark [8] stands for this setting: SC-CO2, 10–26 MPa, 308.2–328.2 K.
The mark [9] stands for this setting: SC-CO2, 9.2–24.4 MPa, 308.2–328.2 K.
Setting [10] is: SC-CO2, 12–30 MPa, 308.2–338.2 K.
[11] abbreviates: SC-CO2, 12–27 MPa, 308.15–338.15 K.
Setting [12] is: SC-CO2, 14.9–25.5 MPa, 303–323 K.
Where [13] appears, read: SC-CO2, 10–30.3 MPa, 308.2–328.2 K.

Where a name gives a salt, the structure may show the parent alone. Read-outs that look alike come from different tables or passages of the source.

Turning to `CC(C)N1c2ccccc2C(C)(C)C12C=Nc1c(cc(N3CCc4ccccc43)c3ccccc13)O2` (stereo not drawn) [1,3-dihydro-3,3-dimethyl-1-isopropyl-6-(2,3)-(dihydroindole-1-yl)spiro[2 H-indole-2,3 − 3 H-naphtho[2,1-b][1,4]oxazine]], for the setting “SC-CO2, 10–26 MPa, 308–328 K”, the “Crossover (MPa)” value is 17 MPa and the “Mole fraction (y)” value is listed as 2.2 × 10^-7 to 5.05 × 10^-6. Regarding `CCCCc1oc2ccccc2c1C(=O)c1cc(I)c(OCCN(CC)CC)c(I)c1` [Amiodarone hydrochloride], under setting [1], the “Crossover (MPa)” value is 19 MPa and the “Mole fraction (y)” value is recorded as 2.510 × 10^−5 to 1.012 × 10^−3.

With `C[C@@H](O[C@H]1OCCN(Cc2n[nH]c(=O)[nH]2)[C@H]1c1ccc(F)cc1)c1cc(C(F)(F)F)cc(C(F)(F)F)c1` [Aprepitant], under setting [2], the “Crossover (MPa)” value was 15–18 MPa and the “Mole fraction (y)” value is recorded as 4.50 × 10^−6 to 7.67 × 10^−5.

On to `C[C@@H]1CC[C@H]2[C@@H](C)C(=O)O[C@@H]3O[C@@]4(C)CC[C@@H]1[C@]32OO4` [Artemisinin], for which, for the setting “SC-CO2, 10–25 MPa, 303–328 K”, the “Crossover (MPa)” value is 13–17 MPa and the “Mole fraction (y)” value is on record as 10^-4 to 10^-3.

For the compound `CC(C)c1c(C(=O)Nc2ccccc2)c(-c2ccccc2)c(-c2ccc(F)cc2)n1CC[C@@H](O)C[C@@H](O)CC(=O)O` [Atorvastatin], under setting [3], the “Crossover (MPa)” value was 17 MPa and the “Mole fraction (y)” value is reported as 1.12 × 10^−6 to 1.45 × 10^−3. In the case of `Cn1cnc([N+](=O)[O-])c1Sc1ncnc2nc[nH]c12` [Azathioprine], where the note is “SC-CO2, 12–27 MPa, 308–338 K”, the “Crossover (MPa)” value is listed as 12–15 MPa and the “Mole fraction (y)” value is 0.27 × 10^−5 to 1.83 × 10^−5. In the case of `CC[C@H]1OC(=O)[C@H](C)[C@@H](O[C@H]2C[C@@](C)(OC)[C@@H](O)[C@H](C)O2)[C@H](C)[C@@H](O[C@@H]2O[C@H](C)C[C@H](N(C)C)[C@H]2O)[C@](C)(O)C[C@@H](C)CN(C)[C@H](C)[C@@H](O)[C@]1(C)O` [Azithromycin], under setting [4], the “Crossover (MPa)” value is 13.8–14 MPa and the “Mole fraction (y)” value is reported as 6.9 × 10^−5 to 2.73 × 10^−4. `CS(=O)(=O)OCCCCOS(C)(=O)=O` [Busulfan]: the “Crossover (MPa)” value (SC-CO2, 12–40 MPa, 308–338 K) was 16 MPa. With `C=CC1=C(C(=O)O)N2C(=O)[C@@H](NC(=O)/C(=N\OCC(=O)O)c3csc(N)n3)[C@H]2SC1` [Cefixime trihydrate], the “Mole fraction (y)” value (SC-CO2, 18.3–33.5 MPa, 308–328 K) is 1.6 × 10^−7 to 3.02 × 10^−7. `CC[C@H]1OC(=O)[C@H](C)[C@@H](O[C@H]2C[C@@](C)(OC)[C@@H](O)[C@H](C)O2)[C@H](C)[C@@H](O[C@@H]2O[C@H](C)C[C@H](N(C)C)[C@H]2O)[C@](C)(OC)C[C@@H](C)C(=O)[C@H](C)[C@@H](O)[C@]1(C)O` [Clarithromycin]: under setting [4], the “Crossover (MPa)” value is on record as 15–15.2 MPa and the “Mole fraction (y)” value is on record as 1.31 × 10^−4 to 3.28 × 10^−4. As for `CCC[C@@H]1C[C@@H](C(=O)N[C@@H]([C@H]2O[C@H](SC)[C@H](O)[C@@H](O)[C@H]2O)[C@H](C)Cl)N(C)C1` [Clindamycin], under setting [4], the “Crossover (MPa)” value is recorded as 14.8–15.2 MPa and the “Mole fraction (y)” value is 1.77 × 10^−4 to 1.146 × 10^−3. `CCC(=O)O[C@]1(C(=O)CCl)[C@@H](C)C[C@H]2[C@@H]3CCC4=CC(=O)C=C[C@]4(C)[C@@]3(F)[C@@H](O)C[C@@]21C` [Clobetasol Propionate]: under setting [5], the “Crossover (MPa)” value is 24.5 MPa and the “Mole fraction (y)” value is 1 × 10^−6 to 2.1 × 10^−5. As for `CCN(CC)c1ccc2cc(-c3nc4ccccc4[nH]3)c(=O)oc2c1` [Coumarin-7], for the setting “SC-CO2, 9–33 MPa, 308–338 K”, the “Crossover (MPa)” value was 13–16 MPa and the “Mole fraction (y)” value was 4.15 × 10^−6 to 1.00 × 10^−5. Take `CN1CCC(=C2c3ccccc3C=Cc3ccccc32)CC1` [Cyproheptadine]: under “SC-CO2, 16–40 MPa, 308–338 K”, the “Crossover (MPa)” value was 20 MPa and the “Mole fraction (y)” value is 3.35 × 10^−5 to 3.09 × 10^−3.

For the compound `CC(=O)OCC(=O)[C@H]1CC[C@H]2[C@@H]3CCC4=CC(=O)CC[C@]4(C)[C@H]3CC[C@]12C` [Desoxycorticosterone acetate], under setting [5], the “Crossover (MPa)” value is on record as 24.5 MPa and the “Mole fraction (y)” value was 5 × 10^−6 to 1.03 × 10^−4. With `O=C(O)c1cc(-c2ccc(F)cc2F)ccc1O` [Diflunisal, 5-(2,4-difluorophenyl)− 2-hydroxybenzoic acid], under setting [6], the “Crossover (MPa)” value is recorded as 15 MPa and the “Mole fraction (y)” value is recorded as 0.54 × 10^-6 to 8.07 × 10^-6.

`CC[C@H]1OC(=O)[C@H](C)[C@@H](O[C@H]2C[C@@](C)(OC)[C@@H](O)[C@H](C)O2)[C@H](C)[C@@H](O[C@@H]2O[C@H](C)C[C@H](N(C)C)[C@H]2O)[C@](C)(O)C[C@@H](C)C(=O)[C@H](C)[C@@H](O)[C@]1(C)O` [Erythromycin]: under setting [4], the “Crossover (MPa)” value was 16.8–17 MPa and the “Mole fraction (y)” value is reported as 4.3 × 10^−5 to 3.12 × 10^−4.

Consider `COc1ccc2nc([S@@+]([O-])Cc3ncc(C)c(OC)c3C)[nH]c2c1` [Esomeprazole], for which, under setting [7], the “Crossover (MPa)” value was 22 MPa and the “Mole fraction (y)” value was 1.11 × 10^-5 to 9.10 × 10^-4. For `CC(C(=O)O)c1cccc(Oc2ccccc2)c1` (stereo not drawn) [Fenoprofen], for the setting “SC-CO2, 12–40 MPa, 308–338 K”, the “Crossover (MPa)” value is reported as 16 MPa and the “Mole fraction (y)” value is 2.01 × 10^−5 to 4.20 × 10^−3.

For `CC(C(=O)O)c1ccc(-c2ccccc2)c(F)c1` (stereo not drawn) [Flurbiprofen], where the note is “SC-CO2, 8–25 MPa, 303–323 K”, the “Crossover (MPa)” value is recorded as 12 MPa and the “Mole fraction (y)” value was 2.170 × 10^-5 to 19.683 × 10^-5.

Take `CC(C)n1c(/C=C/C(O)CC(O)CC(=O)O)c(-c2ccc(F)cc2)c2ccccc21` (stereo not drawn) [Fluvastatin]: under setting [3], the “Crossover (MPa)” value is 17 MPa and the “Mole fraction (y)” value is listed as 5 × 10^−6 to 6 × 10^−4.

Consider `Cc1ccc(NC(=O)c2ccc(CN3CCN(C)CC3)cc2)cc1Nc1nccc(-c2cccnc2)n1` [Imatinib mesylate], for which, under setting [7], the “Crossover (MPa)” value is listed as 18–21 MPa and the “Mole fraction (y)” value was 1.0 × 10^−7 to 4.4 × 10^−6.

For `CC(C)(O)C(=O)c1ccc(OCCO)cc1` [Irgacure® 2959, 2-Hydroxy-4'-(2-hydroxyethoxy)− 2-methylpropiophenone], under setting [8], the “Crossover (MPa)” value was 14 MPa and the “Mole fraction (y)” value is given as 5.17 × 10^−6 to 2.83 × 10^−4. With `O=C1C=CC(=O)c2c(O)cccc21` [Juglone, 5-hydroxy-1,4-naphthoquinone], under setting [9], the “Crossover (MPa)” value is given as 21–22 MPa and the “Mole fraction (y)” value is 2.0 × 10^−5 to 1.6 × 10^−3. Regarding `CN1CCC(=C2c3ccccc3CC(=O)c3sccc32)CC1` [Ketotifen fumarate], under setting [10], the “Crossover (MPa)” value was 20 MPa and the “Mole fraction (y)” value is given as 2.11 × 10^−5 to 1.07 × 10^−3. Regarding `CCOC(=O)N1CCC(=C2c3ccc(Cl)cc3CCc3cccnc32)CC1` [Loratadine], under setting [11], the “Crossover (MPa)” value is listed as 18–21 MPa and the “Mole fraction (y)” value is 4.50 × 10^−6 to 1.30 × 10^−3.

Consider `CC[C@H](C)C(=O)O[C@H]1C[C@@H](C)C=C2C=C[C@H](C)[C@H](CC[C@@H]3C[C@@H](O)CC(=O)O3)[C@H]21` [Lovastatin], for which the “Crossover (MPa)” value under setting [3] is 17 MPa. Consider `CC(C(=O)O)c1ccc(CC2CCCC2=O)cc1` (stereo not drawn) [Loxoprofen], for which, for the setting “SC-CO2, 12–40 MPa, 308–338 K”, the “Crossover (MPa)” value is 20 MPa and the “Mole fraction (y)” value is given as 1.04 × 10^−5 to 1.28 × 10^−3. Consider `Cc1cnc(NC(=O)C2=C(O)c3ccccc3S(=O)(=O)N2C)s1` [Meloxicam sodium], for which, under setting [12], the “Crossover (MPa)” value is on record as 15–17 MPa and the “Mole fraction (y)” value is 4.41 × 10^−6 to 12.76 × 10^−6.

Consider `CCn1cc(C(=O)O)c(=O)c2cc(F)c(N3CCNCC3)cc21` [Norfloxacin], for which the “Mole fraction (y)” value under setting [13] is on record as 1.4 × 10^−6 to 24.4 × 10^−6. In the case of `CC1COc2c(N3CCN(C)CC3)c(F)cc3c(=O)c(C(=O)O)cn1c23` (stereo not drawn) [Ofloxacin], under setting [13], the “Mole fraction (y)” value is 0.4 × 10^−6 to 1.3 × 10^−6.
